This passage reports IC50 results from ChEMBL document CHEMBL4325935, “Molecular Basis for the Selective Inhibition of Histone Deacetylase 6 by a Mercaptoacetamide Inhibitor” (ACS Med Chem Lett, 2018).

SMILES strings stand for the structures. pIC50: −log10 of the molar value.

The target in assay [1] is T1, Protein deacetylase HDAC6 (Homo sapiens, UniProt Q9UBN7).
T1 sequence (Q9UBN7 whole entry): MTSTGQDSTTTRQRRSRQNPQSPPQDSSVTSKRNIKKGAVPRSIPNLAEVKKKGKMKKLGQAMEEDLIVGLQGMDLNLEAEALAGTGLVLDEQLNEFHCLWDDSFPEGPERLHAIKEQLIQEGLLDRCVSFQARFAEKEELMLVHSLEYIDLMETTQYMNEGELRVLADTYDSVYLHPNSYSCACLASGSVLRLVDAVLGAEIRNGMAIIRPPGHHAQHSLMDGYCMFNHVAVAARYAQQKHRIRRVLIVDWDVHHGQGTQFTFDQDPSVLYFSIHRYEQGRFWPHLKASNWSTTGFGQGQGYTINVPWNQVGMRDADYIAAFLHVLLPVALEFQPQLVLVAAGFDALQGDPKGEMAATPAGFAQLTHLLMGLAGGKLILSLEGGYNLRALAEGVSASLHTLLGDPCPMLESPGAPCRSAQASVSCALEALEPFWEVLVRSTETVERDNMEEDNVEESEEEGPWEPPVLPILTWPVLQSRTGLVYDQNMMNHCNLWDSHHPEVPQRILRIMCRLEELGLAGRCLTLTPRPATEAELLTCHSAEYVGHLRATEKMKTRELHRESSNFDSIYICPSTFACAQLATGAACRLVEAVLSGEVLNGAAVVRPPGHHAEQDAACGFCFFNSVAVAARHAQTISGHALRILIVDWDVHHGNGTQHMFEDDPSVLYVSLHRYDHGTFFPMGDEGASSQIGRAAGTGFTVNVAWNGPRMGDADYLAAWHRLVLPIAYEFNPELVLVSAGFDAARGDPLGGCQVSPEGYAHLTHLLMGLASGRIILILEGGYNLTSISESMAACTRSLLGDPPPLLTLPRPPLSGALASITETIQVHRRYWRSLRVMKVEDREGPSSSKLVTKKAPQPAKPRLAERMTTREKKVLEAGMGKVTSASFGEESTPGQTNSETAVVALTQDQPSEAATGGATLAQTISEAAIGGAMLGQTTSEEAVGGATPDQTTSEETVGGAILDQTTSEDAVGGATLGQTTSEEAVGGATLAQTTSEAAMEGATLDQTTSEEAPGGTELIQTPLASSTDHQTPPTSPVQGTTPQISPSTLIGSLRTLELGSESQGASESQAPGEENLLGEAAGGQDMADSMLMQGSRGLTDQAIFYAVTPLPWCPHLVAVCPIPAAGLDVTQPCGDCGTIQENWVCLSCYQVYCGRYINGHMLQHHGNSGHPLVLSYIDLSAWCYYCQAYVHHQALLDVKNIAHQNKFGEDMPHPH
In words: Inhibition of full length human N-terminal FLAG-tagged HDAC6 (1 to 1215 residues) expressed in HEK293 cells preincubated for 15 mins followed by acetyl-Gly-Ala-[acetyl-Lys]-AMC substrate addition measured after 30 mins by fluorimetric method. The assay is classed as cell-based.

Assay [2] has as its target T2, Histone deacetylase 8 (Homo sapiens, UniProt Q9BY41).
T2 sequence (Q9BY41 whole entry): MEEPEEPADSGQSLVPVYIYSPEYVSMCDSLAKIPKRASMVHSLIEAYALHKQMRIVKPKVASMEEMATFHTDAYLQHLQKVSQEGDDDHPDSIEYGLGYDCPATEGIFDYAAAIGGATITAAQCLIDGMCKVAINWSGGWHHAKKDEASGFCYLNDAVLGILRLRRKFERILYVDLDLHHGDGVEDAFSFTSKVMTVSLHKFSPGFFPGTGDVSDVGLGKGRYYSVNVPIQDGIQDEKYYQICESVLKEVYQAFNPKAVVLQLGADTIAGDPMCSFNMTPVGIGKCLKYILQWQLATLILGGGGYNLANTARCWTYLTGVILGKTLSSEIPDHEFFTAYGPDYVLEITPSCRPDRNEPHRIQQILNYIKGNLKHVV
In words: Inhibition of full length human N-terminal FLAG-tagged HDAC8 (1 to 377 residues) expressed in HEK293 cells preincubated for 15 mins followed by Boc-[trifluoroacetyl-Lys]-AMC substrate addition measured after 30 mins by fluorimetric method. The assay is classed as cell-based.

Broadly, the pIC50 is the IC50 on a negative log10 scale, so that one unit is a factor of ten. A high value points to a low IC50. With `O=C(CS)NCCCCCn1ccc2cc(Cl)c(Cl)cc21`, the pIC50 is 7.30 in assay [1] and 4.92 in assay [2].
